The values below come from patent US12382888B2, “Compositions and methods for modulating immunity in plants” (Boyce Thompson Institute for Plant Research, Inc., priority 2013, dated 2025).

“Also recorded” adds a separate entry of the source.

In one test the test system is C. elegans. The note with it: cited from earlier work; for sex pheromone activity: mixture of three ascarosides.
The test system of test [1] is Pseudomonas syringae pv. tomato DC3000 (Pst). In words: Resistance of Arabidopsis to Pseudomonas syringae pv. tomato DC3000 (bacterial growth). Format: in vivo. The note with it: for resistance to virulent Pst DC3000: leaf treatment at the concentration tested; for resistance to virulent Pst DC3000 (bacterial growth): leaf syringe infiltration 0.3 μM 24 hours prior to inoculation, 3 dpi.

Test [2] concerns PR-1. The test can be described thus: PR-1 expression in Arabidopsis leaves (semi-quantitative PCR / qRT-PCR). The note with it: for PR-1 expression in Arabidopsis: leaf pretreatment by syringe infiltration, 0.01, 0.3, and 10 μM; for PR-1 expression, ascaroside alone: leaf syringe infiltration (0.01 or 0.3 μM), semi-quantitative PCR. (Real-time PCR tracks product formation cycle by cycle.)

In test [3] the test system is PR-1. The test can be described thus: PR-1 protein/transcript induction in tobacco leaves (immunoblot, RT-PCR). The note with it: low concentrations of ascaroside. Background: A western blot detects proteins with antibodies after separation by electrophoresis.
Method: Four-weeks old tobacco plants were syringe-infiltrated with buffer, SA, or a mixture of SA (50 μM or 500 μM) and decreasing concentration of ascr #18 (10, 0.3, and 0.01 μM). PR-1 was assayed 48 hours after treatment by immunoblot using anti-PR-1 antibody.
PR-1 expression was analyzed 48 hp SA treatment.
To determine whether ascr #18 affects levels of the prototypic SA-responsive PR-1 gene/protein, tobacco plants were treated with varying concentrations of ascr #18 in the presence or absence of SA (FIG. 2).
For another test, the system named is PDF1.2. The test can be described thus: PDF1.2 expression in Arabidopsis leaves (semi-quantitative PCR / qRT-PCR). The note with it: for PDF1.2 expression in Arabidopsis: leaf pretreatment by syringe infiltration, 0.01, 0.3, and 10 μM; for PDF1.2 expression, ascaroside alone: leaf syringe infiltration (0.01 or 0.3 μM), semi-quantitative PCR.
In a further test the test system is M. incognita. In words: Arabidopsis root knot nematode infection assay. The note with it: higher concentrations than 10 nM. In kind it is in vivo, Meloidogyne incognita.
The next test has as its system Heterodera schachtii. In words: Arabidopsis cyst nematode infection assay. The note with it: higher concentrations than 10 nM. Format: in vivo.
Test [4] relates to ovalbumin-specific T-helper cell responses. The note with it: mice; cited from earlier work.
Test [5] has as its system asthma in a mouse model system. The note with it: cited from earlier work.
For test [6], the system named is Pseudomonas syringae pv. tabaci. In words: Resistance of tobacco to Pseudomonas syringae pv. tabaci (bacterial growth). The note with it: leaves treated with 250 μM SA alone.
The test system of the next test is Botrytis cinerea. In words: Resistance of tomato to Botrytis cinerea B05.01 (detached leaflet assay). In kind it is in vivo. The note with it: tomato cv. M82; root immersion 0.01 μM 48 hours before.
[7] abbreviates: ascaroside at low concentrations in combination with SA (50 μM).
The mark [8] stands for this setting: higher concentration of ascaroside with SA (50 μM).

As for `CC1O[C@@H](O[C@H](C)CCCC/C=C/C(=O)O)C(O)C[C@H]1OC(=O)c1ccc(O)cc1` (stereo partly shown) [hbas #3, reference compound], the “promotion of aggregation behaviors” value in the test on C. elegans is recorded as “active at femtomolar concentrations”.

For `C[C@H](CCC(=O)O)O[C@@H]1O[C@@H](C)[C@H](O)C[C@H]1O` [ascr #9], the “resistance to virulent Pst DC3000” value in [1] is recorded as “did not significantly enhance resistance”. The “SA-induced PR-1 expression” value with PR-1 [2] (setting [7]) is reported as “enhances PR-1 expression induced by SA”. In addition, the “SA-induced PR-1 expression” value in the test with PR-1 [2] (setting [8]) is listed as “reduces the SA-induced PR-1 expression”. For the same molecule, in the test with PR-1 [2], the “PR-1 expression in Arabidopsis” value is “+” and the “PR-1 expression, ascaroside alone” value is “induces PR-1 expression; also recorded: induced expression; also recorded: altered”. In addition, the “PR-1 expression in tobacco cv. W38” value with PR-1 [3] is listed as “did not significantly increase PR-1 expression”. For the same molecule, in the test on PDF1.2, the “PDF1.2 expression in Arabidopsis” value is reported as “+” and the “PDF1.2 expression, ascaroside alone” value was “induces PDF1.2 expression; also recorded: induced expression; also recorded: altered”.

`CC(=O)CC[C@@H](C)O[C@@H]1OC(C)[C@H](O)CC1O` (stereo partly shown) [ascr #2, reference compound]: the sex pheromone activity entry with C. elegans is listed as “active at low nanomolar concentrations”.

Consider `CC1O[C@@H](O[C@H](C)CCCCCCC(=O)O)C(O)C[C@H]1O` (stereo partly shown) [ascr #10], for which the “resistance to virulent Pst DC3000” value in test [1] is given as “did not significantly enhance resistance”. In addition, the “SA-induced PR-1 expression” value in the test with PR-1 [2] (setting [7]) is listed as “enhances PR-1 expression induced by SA”. In addition, the “PR-1 expression, ascaroside alone” value in the test on PR-1 [2] is on record as “induces PR-1 expression; also recorded: altered”. Further, the response of hermaphrodites entry in the test with C. elegans is recorded as “strongly attracts hermaphrodites”. Besides, the “PR-1 expression in tobacco cv. W38” value in the test on PR-1 [3] is reported as “did not significantly increase PR-1 expression”. For the same molecule, the “PDF1.2 expression, ascaroside alone” value in the test with PDF1.2 is listed as “induces PDF1.2 expression; also recorded: altered”.

For the molecule “(10R)-(3′R,5′R-dihydroxy-6′S-methyl-(2H)-tetrahydropyran-2-yloxy)-undecanoic Acid [ascr #18]”, the “infection with M. incognita” value in the test with M. incognita is “less effective”. The “infection with H. schachtii” value in the test with Heterodera schachtii was “less effective”.

With `CC1O[C@@H](O[C@H](C)CCCC/C=C/C(=O)O)C(O)C[C@H]1O` (stereo partly shown) [ascr #3], the “resistance to virulent Pst DC3000 (bacterial growth)” value in test [1] is given as “enhanced resistance”. Moreover, in test [4], the “ovalbumin-specific T-helper cell responses” value was “no significant effect”. In addition, the “SA-induced PR-1 expression” value with PR-1 [2] (setting [7]) is given as “enhances PR-1 expression induced by SA”. The “SA-induced PR-1 expression” value in the test on PR-1 [2] (setting [8]) is recorded as “reduces the SA-induced PR-1 expression”. Further, in the test on PR-1 [2], the “PR-1 expression in Arabidopsis” value is “+” and the “PR-1 expression, ascaroside alone” value is reported as “induces PR-1 expression; also recorded: induced expression; also recorded: altered”. In the test with C. elegans, the response of hermaphrodites entry is “repels hermaphrodites” and the sex pheromone activity result is “active at low nanomolar concentrations”. For the same molecule, the “PR-1 expression in tobacco cv. W38” value in the test on PR-1 [3] is on record as “did not significantly increase PR-1 expression”. Also, in the test on PDF1.2, the “PDF1.2 expression in Arabidopsis” value is given as “+” and the “PDF1.2 expression, ascaroside alone” value is “induces PDF1.2 expression; also recorded: induced expression; also recorded: altered”.

Regarding `CC1O[C@@H](O[C@H](C)CC/C=C/C(=O)Nc2ccc(C(=O)O)cc2)C(O)C[C@H]1O` (stereo partly shown) [ascr #8], the sex pheromone activity entry in the test with C. elegans is on record as “active at low nanomolar concentrations”.

Take `CC1O[C@@H](O[C@H](C)CCCCC(=O)O)C(O)C[C@H]1O` (stereo partly shown) [ascr #1]: the development of asthma result in test [5] is reported as “strongly suppressed the development of asthma”.

Turning to `O=C(O)c1ccccc1O` [SA, salicylic acid, reference compound], the “protection against Pst” value in test [1] (50 μM SA alone, leaf infiltration) is “low level of protection”. The “virulent P.t. growth” value in [6] is listed as “reduced levels of virulent P.t. growth”.

For `CC1O[C@@H](OCCCCC(=O)O)C(O)C[C@H]1O` (stereo partly shown) [oscr #9], in test [1], the “resistance to virulent Pst DC3000” value is recorded as “did not significantly enhance resistance”. For the same molecule, the “SA-induced PR-1 expression” value with PR-1 [2] (setting [7]) is given as “enhances PR-1 expression induced by SA”. For the same molecule, the “PDF1.2 expression in Arabidopsis” value with PDF1.2 is recorded as “−”.

Regarding `CC1O[C@@H](O[C@H](C)CCCCCCCCC(=O)NCCO)C(O)C[C@H]1O` (stereo partly shown) [easc #18], the “resistance to virulent Pst DC3000 (bacterial growth)” value in test [1] was “enhances resistance”. In addition, the “resistance to B. cinerea (lesion size 3 dpi)” value in the test with Botrytis cinerea is on record as “enhanced resistance”.

With `CC1O[C@@H](O[C@H](C)CC/C=C/C(=O)O)C(O)C[C@H]1O` (stereo partly shown) [ascr #7], in test [5], the development of asthma entry is recorded as “strongly suppressed the development of asthma”. Further, the “ovalbumin-specific T-helper cell responses” value in test [4] is recorded as “strongly suppresses”.
